Tests used:
M1 muscarinic receptor = target: T1, M1 muscarinic receptor (Homo sapiens, UniProt P11229); test: Functional mobilization of intracellular calcium (FLIPR) in M1-CHO cells; assay type: cell-based; details: Table 4; for Emax: 100% efficacy is the maximum response obtained with the Carbachol control; for M1 Activity: modulating M1 receptor
T1 construct: expressed in transfected cells; host or cells: CHO (M1-CHO)
T1 sequence (P11229 1-460): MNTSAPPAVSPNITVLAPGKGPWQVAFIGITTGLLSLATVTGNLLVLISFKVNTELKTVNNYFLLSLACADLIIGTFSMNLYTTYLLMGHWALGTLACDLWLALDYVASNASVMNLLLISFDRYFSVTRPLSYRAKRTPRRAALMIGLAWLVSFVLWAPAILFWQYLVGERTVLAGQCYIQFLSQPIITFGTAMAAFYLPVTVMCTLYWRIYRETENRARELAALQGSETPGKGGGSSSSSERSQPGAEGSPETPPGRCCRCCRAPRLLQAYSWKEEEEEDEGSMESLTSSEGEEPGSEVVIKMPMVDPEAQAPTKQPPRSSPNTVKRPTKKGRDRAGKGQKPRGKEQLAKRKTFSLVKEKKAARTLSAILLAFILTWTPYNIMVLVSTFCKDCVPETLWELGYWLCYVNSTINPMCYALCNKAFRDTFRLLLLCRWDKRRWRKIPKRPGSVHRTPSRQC
Procedure, shortened: (§1)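 Measured via Fluo-3 fluorescence on a FLIPR, CHO cells with either muscarinic subtype received compound in 0.5% DMSO. Antagonism was assessed after 15 min pre-incubation followed by carbachol at each subtype's EC80; agonism from compound addition alone.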

M4 muscarinic receptor = target: T2, M4 muscarinic receptor (Homo sapiens, UniProt P08173); test: Functional mobilization of intracellular calcium (FLIPR) in M4-CHO cells; assay type: cell-based; details: Table 4; for Emax: 100% efficacy is the maximum response obtained with the Carbachol control; for M4 Activity: modulating M4 receptor
T2 construct: expressed in transfected cells; host or cells: CHO (M4-CHO)
T2 sequence (P08173 1-479): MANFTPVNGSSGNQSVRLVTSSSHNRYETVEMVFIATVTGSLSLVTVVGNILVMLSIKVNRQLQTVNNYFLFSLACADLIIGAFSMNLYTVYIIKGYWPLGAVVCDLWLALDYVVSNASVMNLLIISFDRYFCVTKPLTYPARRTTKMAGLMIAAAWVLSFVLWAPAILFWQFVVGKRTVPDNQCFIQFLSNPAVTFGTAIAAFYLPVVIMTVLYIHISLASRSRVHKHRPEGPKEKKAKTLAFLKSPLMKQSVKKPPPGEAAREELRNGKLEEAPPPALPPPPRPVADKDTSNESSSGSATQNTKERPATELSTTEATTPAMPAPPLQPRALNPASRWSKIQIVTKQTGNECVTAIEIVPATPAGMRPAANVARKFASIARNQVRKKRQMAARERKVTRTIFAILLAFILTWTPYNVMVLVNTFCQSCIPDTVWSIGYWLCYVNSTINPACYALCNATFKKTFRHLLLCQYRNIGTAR
Procedure, shortened: as §1

Structure (SMILES) | Emax (M1 muscarinic receptor) | M1 Activity (M1 muscarinic receptor) | Emax (M4 muscarinic receptor) | M4 Activity (M4 muscarinic receptor)
CCOC(=O)N1CCC(N2CCCC3(CC2)CN(C(C)=O)c2ccc(F)cc23)C1 (stereo not drawn) [compound 473] | 25 to 100% | x (activity was measured to be greater than 5.0 μM) | < 25% | x (activity was measured to be greater than 5.0 μM)
COCCN1CCC(N2CCC3(CC2)CN(C(C)=O)c2ccc(F)cc23)CC1 [compound 474] | < 25% | x (activity was measured to be greater than 5.0 μM) | < 25% | x (activity was measured to be greater than 5.0 μM)
CC(=O)N1CC2(CCN(C3CC4CCC(C3)N4C(=O)OCC(C)(C)C)CC2)c2ccccc21 (stereo not drawn) [compound 476] | < 25% | x (activity was measured to be greater than 5.0 μM) | < 25% | x (activity was measured to be greater than 5.0 μM)
CCCCc1cncc(N2CCC(N3CCC4(CC3)CN(C(C)=O)c3ccccc34)CC2)n1 [compound 477] | < 25% | x (activity was measured to be greater than 5.0 μM) | < 25% | x (activity was measured to be greater than 5.0 μM)
CCCOC(=O)N1CC[C@@H](CN2CCC3(CC2)CN(C(C)=O)c2ccccc23)C1 [compound 478] | < 25% | x (activity was measured to be greater than 5.0 μM) | < 25% | x (activity was measured to be greater than 5.0 μM)
CC#CC(C)OC(=O)N1CC[C@@H](CN2CCC3(CC2)CN(C(=O)N(C)C)c2ccc(F)cc23)C1 (stereo partly drawn) [compound 479] | 25 to 100% | xxx (activity was measured to be less than 2.0 μM) | < 25% | xxx (activity was measured to be less than 2.0 μM)
CC(=O)N[C@H]1CC2(CCN(CC(=O)N3CCOCC3)CC2)c2ccccc21 [compound 480] | < 25% | x (activity was measured to be greater than 5.0 μM) | < 25% | x (activity was measured to be greater than 5.0 μM)
CCC#CCOC(=O)N1CC[C@@H](CN2CCC3(CC2)CN(C(C)=O)c2ccccc23)C1 [compound 481] | 25 to 100% | xxx (activity was measured to be less than 2.0 μM) | 25 to 100% | xxx (activity was measured to be less than 2.0 μM)
CCOC(=O)N1CC[C@H](CN2CCC3(CC2)CN(C(C)=O)c2ccccc23)C1 [compound 482] | 25 to 100% | xxx (activity was measured to be less than 2.0 μM) | 25 to 100% | xxx (activity was measured to be less than 2.0 μM)
CC1(C)C(=O)c2ccccc2C12CCN([C@H]1C[C@@H]3CC[C@@H]1C3)CC2 [compound 483] | < 25% | x (activity was measured to be greater than 5.0 μM) | < 25% | x (activity was measured to be greater than 5.0 μM)
CCOC(=O)N1C2CCC1CC(N1CCC3(CCCc4ccccc43)CC1)C2 (stereo not drawn) [compound 484] | 25 to 100% | xxx (activity was measured to be less than 2.0 μM) | 25 to 100% | xxx (activity was measured to be less than 2.0 μM)
CC#CC(C)OC(=O)N1CC[C@H](CN2CCC3(CC2)CN(C(=O)N(C)C)c2ccc(F)cc23)C1 (stereo partly drawn) [compound 485] | 25 to 100% | xx (activity was measured to be between 2.0 μM and 5.0 μM) | < 25% | xxx (activity was measured to be less than 2.0 μM)
CC(=O)N[C@@H]1CCC2(CCN(CC3CC4C=CC3C4)CC2)c2ccccc21 (stereo partly drawn) [compound 486] | < 25% | x (activity was measured to be greater than 5.0 μM) | 25 to 100% | xxx (activity was measured to be less than 2.0 μM)
O=C(N[C@H]1CC2(CCN([C@@H]3C[C@H]4CC[C@@H]3C4)CC2)c2ccccc21)N1CCCC1 [compound 487] | < 25% | x (activity was measured to be greater than 5.0 μM) | 25 to 100% | xxx (activity was measured to be less than 2.0 μM)
O=C(O)C1CC2(CCN(C3CCCCCC3)CC2)c2ccccc21 (stereo not drawn) [compound 488] | 25 to 100% | x (activity was measured to be greater than 5.0 μM) | 25 to 100% | x (activity was measured to be greater than 5.0 μM)
CC(=O)N1CC2(CCN(C3CCN(c4cncc(C)n4)CC3)CC2)c2ccccc21 [compound 489] | 25 to 100% | xxx (activity was measured to be less than 2.0 μM) | 25 to 100% | xxx (activity was measured to be less than 2.0 μM)
CCC(=O)N[C@H]1CC2(CCN([C@@H]3C[C@@H]4CC[C@@H]3C4)CC2)c2ccccc21 [compound 490] | 25 to 100% | x (activity was measured to be greater than 5.0 μM) | > 100% | xxx (activity was measured to be less than 2.0 μM)
CCOC(=O)N1CCC(N2CCC3(CC2)CN(C(C)=O)c2c(-c4ccc(C(C)=O)cc4)cccc23)CC1 [compound 491] | 25 to 100% | xx (activity was measured to be between 2.0 μM and 5.0 μM) | < 25% | xx (activity was measured to be between 2.0 μM and 5.0 μM)
CN(C)C(=O)N1CC2(CCN(C3CCN(C(=O)CCC#N)CC3)CC2)c2cc(F)ccc21 [compound 492] | 25 to 100% | x (activity was measured to be greater than 5.0 μM) | < 25% | x (activity was measured to be greater than 5.0 μM)
C#CCOC(=O)N1CC[C@H](CN2CCC3(CC2)CN(C(C)=O)c2ccccc23)C1 [compound 493] | > 100% | xxx (activity was measured to be less than 2.0 μM) | > 100% | xxx (activity was measured to be less than 2.0 μM)
CCOC(=O)N1CCC(N2CCC3(CC2)CN(C(=O)NC(C)C)c2ccccc23)CC1 [compound 494] | 25 to 100% | xx (activity was measured to be between 2.0 μM and 5.0 μM) | 25 to 100% | xxx (activity was measured to be less than 2.0 μM)
CC(=O)N1CC2(CCN(C3CCN(C(=O)OCC(C)(C)C)CC3)CC2)c2ccccc21 [compound 496] | < 25% | x (activity was measured to be greater than 5.0 μM) | < 25% | x (activity was measured to be greater than 5.0 μM)
CN(C)C(=O)N1CC2(CCN(C3CCN(c4nccnc4C#N)CC3)CC2)c2cc(F)ccc21 [compound 497] | 25 to 100% | xx (activity was measured to be between 2.0 μM and 5.0 μM) | 25 to 100% | xx (activity was measured to be between 2.0 μM and 5.0 μM)
Cc1ccc2c(c1)C(=O)CC21CCN(CC2C[C@H]3C=C[C@H]2C3)CC1 (stereo partly drawn) [compound 498] | 25 to 100% | xxx (activity was measured to be less than 2.0 μM) | 25 to 100% | xxx (activity was measured to be less than 2.0 μM)

— US7786141B2 (Vertex Pharmaceuticals Incorporated, priority 2004, dated 2010)
